Results reported in patent US5476874A, “New HIV protease inhibitors” (Merck & Co., Inc., priority 1994, dated 1995).

Target: T1, HIV protease (Human immunodeficiency virus type 1 group M subtype B, UniProt P04585)
T1 construct: the protease expressed in Escherichia coli; made in house; host or cells: Escherichia coli
Assay: Assay for Inhibition of Microbial Expressed HIV Protease
Assay type: biochemical
Details: protease expressed in Escherichia coli; peptide substrate Val-Ser-Gln-Asn-(betanaphthyl)Ala-Pro-Ile-Val; 50 mM Na acetate, pH 5.5, 30° C., 1 hour; HPLC readout
Method: Assay for Inhibition of Microbial Expressed HIV Protease
Inhibition studies of the reaction of the protease expressed in Escherichia coli with a peptide substrate [Val-Ser-Gln-Asn-(betanaphthyl)Ala-Pro-Ile-Val, 0.5 mg/mL at the time the reaction is initiated] were in 50 mM Na acetate, pH 5.5, at 30° C. for 1 hour. Various concentrations of inhibitor in 1.0 ul DMSO were added to 25 ul of the peptide solution in water. The reaction is initiated by the addition of 15 ul of 0.33 nM protease […] in a solution of 0.133 M Na acetate pH 5.5 and 0.26% bovine serum albumin. The reaction was quenched with 160 ul of 5% phosphoric acid. Products of the reaction were separated by HPLC (VYDAC wide pore 5 cm C-18 reverse phase, acetonitrile gradient, 0.1% phosphoric acid). The extent of inhibition of the reaction was determined from the peak heights of the products.

- IC50: 8 to 9 nM
Structure (SMILES): CC(C)CN(CC(O)CC(Cc1ccccc1)C(=O)NC1c2ccccc2CC1O)C(=O)OCc1ccccc1 [Compound A, N-(2'(R)-hydroxy-1'(S)-indanyl)-2(R)-phenylmethyl-4(S)-hydroxy-5-[((2'''-methyl)propyl)-benzyloxycarbonyl]-amino-pentaneamide]
